T1: DJ-1 (Homo sapiens, UniProt Q99497)
T1 construct: gene PARK7; recombinant DJ-1
T1 sequence (Q99497 2-189): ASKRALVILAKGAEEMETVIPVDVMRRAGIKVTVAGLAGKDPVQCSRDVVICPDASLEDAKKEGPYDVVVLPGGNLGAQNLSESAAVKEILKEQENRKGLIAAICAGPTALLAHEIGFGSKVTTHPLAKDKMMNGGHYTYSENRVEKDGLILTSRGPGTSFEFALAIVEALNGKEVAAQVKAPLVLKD

T2: DJ-1 (human (endogenous in SH-SY5Y)), Q99497
T2 chain: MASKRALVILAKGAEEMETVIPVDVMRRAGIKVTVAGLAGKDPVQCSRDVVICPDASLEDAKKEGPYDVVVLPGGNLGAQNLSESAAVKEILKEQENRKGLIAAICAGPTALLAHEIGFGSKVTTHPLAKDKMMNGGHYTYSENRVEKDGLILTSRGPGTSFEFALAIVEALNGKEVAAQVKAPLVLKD


Assays:
DJ-1 = target: T1, DJ-1; assay: quartz crystal microbalance (compound fixed on sensor chip, recombinant DJ-1 applied); type: binding
[1] = target: T2, DJ-1 (human (endogenous in SH-SY5Y)), …; assay: cross-linking; SH-SY5Y cells incubated with 1 uM compound-23 or compound-B for 20 hours, treated with various amounts of H2O2 for 3 hours, then 0.5 mM DSS (or DMSO) for 30 min; extracts analysed by Western blotting with an anti-DJ-1 antibody; settings: remark: other sources report otherwise

Kd (DJ-1) [nM]	stoichiometry N [1]	Molecule
103		COc1cc(C(=O)Nc2ccc(-c3cn4cccc(C)c4n3)cc2)cc(OC)c1OC [compound-23, N-[4-(8-methyl(4-hydroimidazo[1,2-a]pyridin-2-yl))phenyl](3,4,5-trimethoxyphenyl)carboxamide]
	2	DJ-1, Q99497 1-189 (natural protein) MASKRALVILAKGAEEMETVIPVDVMRRAGIKVTVAGLAGKDPVQCSRDVVICPDASLEDAKKEGPYDVVVLPGGNLGAQNLSESAAVKEILKEQENRKGLIAAICAGPTALLAHEIGFGSKVTTHPLAKDKMMNGGHYTYSENRVEKDGLILTSRGPGTSFEFALAIVEALNGKEVAAQVKAPLVLKD
